Patent US20250244312A1, “EX VIVO COLONIC BIOPSY PLATFORM TO EVALUATE MULTI-OMIC SIGNATURES FOR SCREENING CANDIDATE THERAPEUTICS” (Athos Therapeutics, Inc., priority 2020, published 2025)
Peptide text beside a SMILES is read from it. l = locked nucleic acid (LNA); [5mC] = 5-methylcytosine; d = 2'-deoxy (DNA)

How the values were obtained:
Format in all cases: cell-based, human
[1] = system: IL-1B; experiment: IL-1B level in supernatant of colonic explant culture (ELISA), ex vivo biopsy high throughput platform; details: 12 h; for IL-1B levels / effectiveness at reducing IL1B levels, compared with the other inhibitors: 10 uM; for IL-1B levels: supernatant of UC active disease colonic biopsy replicate, vs untreated control well; for effectiveness at reducing IL1B levels, compared with the other inhibitors: UC colonic explant
Method: (§1) Step 1: A biopsy was obtained from a macroscopically disease area of the inflammatory intestinal mucosa of an IBD patient. Samples can be from small or large intestine and the patient can be afflicted with, or suspected of having, UC or CD. The medium used to transport mucosal colonic biopsies from IBD patients was pre-cooled on ice, and comprised: Dulbecco's Modified Eagle Medium (DMEM) liquid (High Glucose), 4 mM L-alanyl-L-glutamine dipeptide, 1% penicillin/streptomycin and […] gentamicin. Tissue culture was initiated less than 1 hour after collection.
(§2) Step 2: Once in the laboratory, the biopsy was washed in Hank's Balanced Salt Solution buffer for a few minutes (e.g., 2-5 min) and cut with sterile scalpels to create biopsy pieces (approximately 2-5 um sections). Media comprising Dulbecco's Modified Eagle Medium (DMEM) liquid (High Glucose), 4 mM L-alanyl-L-glutamine dipeptide, 1% FBS, 1% non-essential amino acids, 1% Sodium Pyruvate, 1% penicillin/streptomycin, […] gentamicin and 5 ug/ml insulin-transferrin-selenium-X, was pre-warmed at 37° C. and added to the pieces of the biopsy. The average volume of media for each biopsy was 1.5 mL, which allows generation of 10 replicates in a 96 well plate (150 uL/well) or 60 replicates in a 384 well plate (25 uL/well). The plates then were cultured in a humidified chamber with 95% O2 and 5% CO2. The 96-and 384-well plates are two non-limiting embodiments of the platform assay disclosed herein, though additional embodiments of the high throughput platform disclosed herein can be used to predict drug responses by evaluating multi-omic signatures in other multi-well formats.
(§3) An embodiment of the ex vivo biopsy high throughput platform was used to assess the effects of G9A inhibitors BIX01294 (cat. No 3364, Tocris) and UNC0642 (cat. No 5132, Tocris), JMJD3 inhibitors GSK-J4 (cat. No 4594, Tocris) and JIB-04 (cat. No 4972, Tocris), and an EZH2 inhibitor UNC1999 (cat. No 4904, Tocris) (10 uM) on a multi-omic response, evaluating cytokine production levels and global chromatin H3K9me2 and H3K27me3 levels in UC active disease colonic explants.
(§4) Specifically, a UC active disease colonic biopsy was processed as described in Example 1 and separated into 6 replicates in a 96-well plate. One well was used as control and the rest were treated with each compound at the concentration of 10 uM. Twelve hours later, 50 uL of supernatant was collected to evaluate IL-1B (#KHC0011, ThermoFisher) and TNFA levels (#BMS223HS, ThermoFisher); meanwhile, the tissue pellet was also collected and processed to check H3K9me2 (#P-3032, Epigentek) and H3K27me3 (#P-3020,Epigentek) levels by ELISA assay.
(§5) The biopsy was processed as described in Example 1. Briefly, one well was used as control and treated with RNA-negative control (miR-NC, cat no. YI00199006, Qiagen) (1 uM), a second well was treated with the miR-24-A inhibitor (1 uM), and a third well was treated with miR-24-B inhibitor (1 uM). 50 uL of supernatant was collected to evaluate IL1B and TNFA levels and tissue pellet was collected and processed for RNA extraction (miRNeasy Kit, Qiagen). MicroRNA LNA miRNA PCR assays (Qiagen) were performed for miR-24-3p (cat.no YP00204260, Qiagen).

[2] = system: TNFA; experiment: TNFA level in supernatant of colonic explant culture (ELISA), ex vivo biopsy high throughput platform; details: 12 h; for TNFA levels / effectiveness at reducing TNFA levels, compared with the other inhibitors: 10 uM; for TNFA levels: supernatant of UC active disease colonic biopsy replicate, vs untreated control well; for effectiveness at reducing TNFA levels, compared with the other inhibitors: UC colonic explant
Method: as §1, §2, §3, §4, §5

[3] = system: miR-24-3p; experiment: miR-24-3p expression in UC colonic explant culture (LNA miRNA PCR assay); details: 1 uM, 12 h, UC colonic explant tissue pellet
Method: as §1
as §2, with “The 96-and 384-well plates are two non-limiting embodiments of the platform assay disclosed herein, though additional embodiments of the high throughput platform disclosed herein can be used to predict drug responses by evaluating multi-omic signatures in other multi-well formats.” left out

[4] = system: H3K9me2; experiment: Global chromatin H3K9me2 level in colonic explant tissue pellet (ELISA); details: 10 uM, 12 h, tissue pellet of UC colonic explant
Method: as §1
as §2, with “The 96-and 384-well plates are two non-limiting embodiments of the platform assay disclosed herein, though additional embodiments of the high throughput platform disclosed herein can be used to predict drug responses by evaluating multi-omic signatures in other multi-well formats.” left out

[5] = system: H3K27me3; experiment: Global chromatin H3K27me3 level in colonic explant tissue pellet (ELISA); details: 10 uM, 12 h, tissue pellet of UC colonic explant
Method: as §1
as §2, with “formats. […]” for “formats.”

[6] = system: IBD colonic explants; experiment: Cell viability of colonic explants (CellTiter-Blue assay)
Method: as §1
Step 3: Cell viability evaluation. To evaluate the effects of any drug using a colonic explant assay, the viability of the colonic explant in culture is examined. The experimental conditions related to the culture viability of the colonic explants were optimized by focusing on the media composition during the transfer of the biopsy from the patient biopsy collection site to the laboratory and the duration of culturing the explant.
CellTiter-Blue assay (Promega) was used to evaluate cell viability of the colonic explants. Briefly, the CellTiter-Blue reagent was added in the culture and the fluorescent signal was measured (560/590 nm) after 1 h of incubation in 37° C. […]

[7] = 1 uM, UC colonic explant supernatant, control miR-NC

Compound | IL-1B levels [1] | TNFA levels [2] | H3K27me3 levels [5] | also measured
5-CTG^mCTGAA^mCTGAG^mCCA-3 (antisense CTGCTGAACTGAGCCA; sugars from the 5' end l3 d6 l2 d3 l2, [5mC] at 4, 9, 14, all phosphorothioate, methylation of C not given here) [miR-24-A, antisense-miR-24-3p compound; phosphorothioate linkages bases 1-16, LNA at bases 1-3, 10-11, 15-16,5-methylcytosine at positions 4,9, 14] |  |  |  | reducing IL1B levels, compared to miR-24-B inhibitor [1, 7]: more effective; reducing TNFA levels, compared to miR-24-B inhibitor [2, 7]: more effective; miR-24-3p expression levels, compared to miR-24-B inhibitor [3]: more effectively suppressed
COc1cc2nc(N3CCCN(C)CC3)nc(NC3CCN(Cc4ccccc4)CC3)c2cc1OC [BIX01294] | reduced | reduced |  | H3K9me2 levels [4]: reduced
CCOC(=O)CCNc1cc(N2CCc3ccccc3CC2)nc(-c2ccccn2)n1 [GSK-J4] | reduced | reduced | increased | effectiveness at reducing IL1B levels, compared with the other inhibitors [1]: more effective than BIX01294 and JIB-04; effectiveness at reducing TNFA levels, compared with the other inhibitors [2]: more effective than BIX01294 and JIB-04
Clc1ccc(N/N=C(\c2ccccc2)c2ccccn2)nc1 [JIB-04] | reduced | reduced | increased | 
C[C@H](N)C(=O)N[C@@H](CCC(N)=O)C(=O)O [L-alanyl-L-glutamine dipeptide] (H-Ala-Gln-OH) |  |  |  | cell viability of colonic explants ([6]; added to the transfer media (DMEM, penicillin/streptomycin, gentamicin)): substantial increase in cell viability; concentration identified to have the highest cell viability ([6]; in transfer media): 4 mM
COc1cc2c(NC3CCN(C(C)C)CC3)nc(N3CCC(F)(F)CC3)nc2cc1OCCCN1CCCC1 [UNC0642] | reduced | reduced |  | effectiveness at reducing IL1B levels, compared with the other inhibitors [1]: more effective than BIX01294 and JIB-04; effectiveness at reducing TNFA levels, compared with the other inhibitors [2]: more effective than BIX01294 and JIB-04; H3K9me2 levels [4]: reduced
CCCc1cc(C)[nH]c(=O)c1CNC(=O)c1cc(-c2ccc(N3CCN(C(C)C)CC3)nc2)cc2c1cnn2C(C)C [UNC1999] | increased | increased | reduced | 
